What was measured:
[1] = target: Human plasma kallikrein (Homo sapiens (Human), UniProt P03952); test: Kallikrein Assay (fluorogenic substrate Acetyl-K-P-R-AFC); format: biochemical; details: Plasma Kallikrein (PKal)
Method in brief: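 Ki is derived from IC50 with the Cheng-Prusoff equation, and IC50 from the inflection point of a four-parameter logistic curve. The rate of AFC release is read with 0.5 nM purified enzyme and […] substrate at room temperature or 37 °C.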

[2] = target: human Factor XIa (Homo sapiens (Human), UniProt P03951); test: Factor XIa Assay (fluorogenic substrate GPR-AFC); format: biochemical; details: Factor XIa (FXIa)
Sequence of human Factor XIa (P03951 388-625 limits assumed): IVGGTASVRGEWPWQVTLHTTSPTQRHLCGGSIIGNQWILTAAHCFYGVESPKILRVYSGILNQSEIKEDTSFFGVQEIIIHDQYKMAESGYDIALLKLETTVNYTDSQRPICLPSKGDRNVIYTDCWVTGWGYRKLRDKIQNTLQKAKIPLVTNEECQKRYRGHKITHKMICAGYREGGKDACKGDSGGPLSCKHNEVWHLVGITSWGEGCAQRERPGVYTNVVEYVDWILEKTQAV
Sequence of human Factor XIa (P03951 19-387 partner limits assumed): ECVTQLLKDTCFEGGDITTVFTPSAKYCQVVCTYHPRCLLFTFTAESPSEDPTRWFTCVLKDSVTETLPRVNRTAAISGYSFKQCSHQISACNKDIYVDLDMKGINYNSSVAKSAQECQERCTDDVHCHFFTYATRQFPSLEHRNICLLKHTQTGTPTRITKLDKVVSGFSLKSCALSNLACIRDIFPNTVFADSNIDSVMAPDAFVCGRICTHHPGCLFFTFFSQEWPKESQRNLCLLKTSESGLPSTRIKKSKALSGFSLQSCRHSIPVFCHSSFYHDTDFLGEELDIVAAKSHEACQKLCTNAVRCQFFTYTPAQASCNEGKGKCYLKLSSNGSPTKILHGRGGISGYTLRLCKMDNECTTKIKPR

Sequence of Human plasma kallikrein (P03952 391-638): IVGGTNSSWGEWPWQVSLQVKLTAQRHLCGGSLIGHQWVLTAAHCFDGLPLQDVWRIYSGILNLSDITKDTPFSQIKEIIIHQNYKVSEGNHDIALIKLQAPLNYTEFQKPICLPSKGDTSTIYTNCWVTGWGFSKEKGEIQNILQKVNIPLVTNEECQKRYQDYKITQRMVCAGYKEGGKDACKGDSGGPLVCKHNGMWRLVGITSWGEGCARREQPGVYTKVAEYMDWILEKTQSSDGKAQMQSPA
Sequence of Human plasma kallikrein (P03952 20-390 partner): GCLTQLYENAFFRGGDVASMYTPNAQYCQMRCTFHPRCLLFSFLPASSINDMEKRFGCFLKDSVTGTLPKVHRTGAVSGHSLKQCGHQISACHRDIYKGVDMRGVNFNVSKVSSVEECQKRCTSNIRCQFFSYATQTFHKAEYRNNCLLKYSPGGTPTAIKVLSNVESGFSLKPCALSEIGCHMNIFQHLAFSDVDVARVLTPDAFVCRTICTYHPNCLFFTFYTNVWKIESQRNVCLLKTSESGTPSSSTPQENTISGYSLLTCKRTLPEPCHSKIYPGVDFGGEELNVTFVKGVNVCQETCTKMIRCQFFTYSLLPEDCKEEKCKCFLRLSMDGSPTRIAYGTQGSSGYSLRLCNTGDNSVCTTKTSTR

| Compound | IC50 [1] | IC50 [2] |
| --- | --- | --- |
| Cc1nc(N2C[C@@H]3C[C@@H]3C2=O)ncc1Cn1cc(NC(=O)c2nc(-c3c(C(F)F)ccc(Cl)c3F)cnc2C)cn1 [Example 34, 6-(3-Chloro-6-(difluoromethyl)-2-fluorophenyl)-3-methyl-N-(1-((4-methyl-2-((1S,5R)-2-oxo-3-azabicyclo[3.1.0]hexan-3-yl)pyrimidin-5-yl)methyl)-1H-pyrazol-4-yl)pyrazine-2-carboxamide] | 19.3 nM | 2890 nM |
| C=Cc1ncc(-c2c(C(F)F)ccc(Cl)c2F)nc1C(=O)Nc1cnn(Cc2cnc(N3C[C@H]4C[C@H]4C3=O)nc2C)c1 [Example 35, 6-(3-Chloro-6-(difluoromethyl)-2-fluorophenyl)-N-(1-((4-methyl-2-((1R,5S)-2-oxo-3-azabicyclo[3.1.0]hexan-3-yl)pyrimidin-5-yl)methyl)-1H-pyrazol-4-yl)-3-vinylpyrazine-2-carboxamide] | 6.8 nM | 4940 nM |
| Cc1nc(N2C[C@H]3C[C@H]3C2=O)ncc1Cn1cc(NC(=O)c2nc(-c3c(OC(F)F)ccc(Cl)c3F)cnc2C)cn1 [Example 36, 6-(3-Chloro-6-(difluoromethoxy)-2-fluorophenyl)-3-methyl-N-(1-((4-methyl-2-((1R,5S)-2-oxo-3-azabicyclo[3.1.0]hexan-3-yl)pyrimidin-5-yl)methyl)-1H-pyrazol-4-yl)pyrazine-2-carboxamide] | 3 nM | 609 nM |
| Cc1cc([C@@H](C)n2cc(NC(=O)c3cncc(-c4c(C(F)F)ccc(Cl)c4F)n3)cn2)nnc1N1C[C@H]2C[C@H]2C1=O [Example 38, 6-(3-Chloro-6-(difluoromethyl)-2-fluorophenyl)-N-(1-((R)-1-(5-methyl-6-((1R,5S)-2-oxo-3-azabicyclo[3.1.0]hexan-3-yl)pyridazin-3-yl)ethyl)-1H-pyrazol-4-yl)pyrazine-2-carboxamide] | 6.2 nM | 742 nM |
| Cc1c(C(C)n2cc(NC(=O)c3cncc(-c4c(C(F)F)ccc(Cl)c4F)n3)cn2)cnc(N2C[C@H]3C[C@H]3C2=O)c1F (stereo partly drawn) [Example 45, 6-(3-Chloro-6-(difluoromethyl)-2-fluorophenyl)-N (1-(1-(5-fluoro-4-methyl-6-((1R,5S)-2-oxo-3-azabicyclo[3.1.0]hexan-3-yl)pyridin-3-yl)ethyl)-1H-pyrazol-4-yl)pyrazine-2-carboxamide] | 6.1 nM | 4670 nM |
| COc1cc(Cn2cc(NC(=O)c3cncc(-c4c(C(F)F)ccc(Cl)c4F)n3)cn2)cnc1N1C[C@H]2C[C@H]2C1=O [Example 49, 6-(3-Chloro-6-(difluoromethyl)-2-fluorophenyl)-N-(1-((5-methoxy-6-((1R,5S)-2-oxo-3-azabicyclo[3.1.0]hexan-3-yl)pyridin-3-yl)methyl)-1H-pyrazol-4-yl)pyrazine-2-carboxamide] | 3.5 nM | 423 nM |
| O=C(Nc1cnn(Cc2cnc(N3C[C@H]4C[C@H]4C3=O)c(F)c2)c1)c1cncc(-c2c(C(F)F)ccc(Cl)c2F)n1 [Example 50, 6-(3-Chloro-6-(difluoromethyl)-2-fluorophenyl)-N-(1-((5-fluoro-6-((1R,5S)-2-oxo-3-azabicyclo[3.1.0]hexan-3-yl)pyridin-3-yl)methyl)-1H-pyrazol-4-yl)pyrazine-2-carboxamide] | 5.5 nM | 2120 nM |
| Cc1cc(N2C[C@H]3C[C@H]3C2=O)ncc1Cn1cc(NC(=O)c2cncc(-c3c(C(F)F)ccc(Cl)c3F)n2)cn1 [Example 57, 6-(3-Chloro-6-(difluoromethyl)-2-fluorophenyl)-N-(1-((4-methyl-6-((1R,5S)-2-oxo-3-azabicyclo[3.1.0]hexan-3-yl)pyridin-3-yl)methyl)-1H-pyrazol-4-yl)pyrazine-2-carboxamide] | 4.9 nM | 1890 nM |
| Cc1nc(Cn2cc(NC(=O)c3cncc(-c4c(C(F)F)ccc(Cl)c4F)n3)cn2)ccc1N1C[C@H]2C[C@H]2C1=O [Example 64, 6-(3-Chloro-6-(difluoromethyl)-2-fluorophenyl)-N-(1-((6-methyl-5-((1R,5S)-2-oxo-3-azabicyclo[3.1.0]hexan-3-yl)pyridin-2-yl)methyl)-1H-pyrazol-4-yl)pyrazine-2-carboxamide] | 3.4 nM | > 10000 nM |
| Cc1cc(Cn2cc(NC(=O)c3cncc(-c4c(C(F)F)ccc(Cl)c4F)n3)cn2)ncc1N1C[C@H]2C[C@H]2C1=O [Example 65, 6-(3-Chloro-6-(difluoromethyl)-2-fluorophenyl)-N-(1-((4-methyl-5-((1R,5S)-2-oxo-3-azabicyclo[3.1.0]hexan-3-yl)pyridin-2-yl)methyl)-1H-pyrazol-4-yl)pyrazine-2-carboxamide] | 35.7 nM | > 10000 nM |

Compounds with a lower IC50 [1], results first:

| IC50 [1] | IC50 [2] | Compound |
| --- | --- | --- |
| 2.5 nM | 875 nM | Cc1nc(N2C[C@H]3C[C@H]3C2=O)ncc1Cn1cc(NC(=O)c2nc(-c3c(C(F)F)ccc(Cl)c3F)cnc2C)cn1 [Example 33, 6-(3-Chloro-6-(difluoromethyl)-2-fluorophenyl)-3-methyl-N-(1-((4-methyl-2-((1R,5S)-2-oxo-3-azabicyclo[3.1.0]hexan-3-yl)pyrimidin-5-yl)methyl)-1H-pyrazol-4-yl)pyrazine-2-carboxamide] |
| 2.5 nM | 1150 nM | Cc1nc(Cn2cc(NC(=O)c3cncc(-c4c(C(F)F)ccc(Cl)c4F)n3)cn2)cnc1N1C[C@H]2C[C@H]2C1=O [Example 47, 6-(3-Chloro-6-(difluoromethyl)-2-fluorophenyl)-N-(1-((6-methyl-5-((1R,5S)-2-oxo-3-azabicyclo[3.1.0]hexan-3-yl)pyrazin-2-yl)methyl)-1H-pyrazol-4-yl)pyrazine-2-carboxamide] |
| 2.4 nM | 1280 nM | Cc1nc(N2C[C@H]3C[C@H]3C2=O)ncc1C1(n2cc(NC(=O)c3nc(-c4c(C(F)F)ccc(Cl)c4F)cnc3C)cn2)CC1 [Example 54, 6-(3-Chloro-6-(difluoromethyl)-2-fluorophenyl)-3-methyl-N(1-(1-(4-methyl-2-((1R,5S)-2-oxo-3-azabicyclo[3.1.0]hexan-3-yl)pyrimidin-5-yl)cyclopropyl)-1H-pyrazol-4-yl)pyrazine-2-carboxamide] |
| 1.8 nM | 255 nM | Cc1cc([C@@H](C)n2cc(NC(=O)c3nc(-c4c(OC(F)F)ccc(Cl)c4F)cnc3C)cn2)nnc1N1C[C@H]2C[C@H]2C1=O [Example 40, 6-(3-Chloro-6-(difluoromethoxy)-2-fluorophenyl)-3-methyl-N-(1-((R)-1-(5-methyl-6-((1R,5S)-2-oxo-3-azabicyclo[3.1.0]hexan-3-yl)pyridazin-3-yl)ethyl)-1H-pyrazol-4-yl)pyrazine-2-carboxamide] |
| 1.8 nM | 94 nM | Cc1nc(N2C[C@H]3C[C@H]3C2=O)ncc1Cn1cc(NC(=O)c2nc(-c3c(C(F)F)ccc(Cl)c3F)cc(=O)n2C)cn1 [Example 81, 4-(3-Chloro-6-(difluoromethyl)-2-fluorophenyl)-1-methyl-N-(1-((4-methyl-2-((1R,5S)-2-oxo-3-azabicyclo[3.1.0]hexan-3-yl)pyrimidin-5-yl)methyl)-1H-pyrazol-4-yl)-6-oxo-1,6-dihydropyrimidine-2-carboxamide] |
| 1.8 nM | 935 nM | Cc1ncc(-c2c(C(F)F)ccc(Cl)c2F)nc1C(=O)Nc1cnn(Cc2cnc(N3C[C@H]4C[C@H]4C3=O)c(F)c2)c1 [Example 82, 6-(3-Chloro-6-(difluoromethyl)-2-fluorophenyl)-N-(1-((5-fluoro-6-((1R,5S)-2-oxo-3-azabicyclo[3.1.0]hexan-3-yl)pyridin-3-yl)methyl)-1H-pyrazol-4-yl)-3-methylpyrazine-2-carboxamide] |
| 1.7 nM | > 10000 nM | Cc1nc(Cn2cc(NC(=O)c3nc(-c4c(C(F)F)ccc(Cl)c4F)cnc3C)cn2)ccc1N1C[C@H]2C[C@H]2C1=O [Example 63, 6-(3-Chloro-6-(difluoromethyl)-2-fluorophenyl)-3-methyl-N-(1-((6-methyl-5-((1R,SS)-2-oxo-3-azabicyclo[3.1.0]hexan-3-yl)pyridin-2-yl)methyl)-1H-pyrazol-4-yl)pyrazine-2-carboxamide] |
| 1.2 nM | 1270 nM | Cc1cc([C@H](C)n2cc(NC(=O)c3cncc(-c4c(C(F)F)ccc(Cl)c4F)n3)cn2)nnc1N1C[C@H]2C[C@H]2C1=O [Example 37, 6-(3-Chloro-6-(difluoromethyl)-2-fluorophenyl)-N-(1-((S)-1-(5-methyl-6-((1R,5S)-2-oxo-3-azabicyclo[3.1.0]hexan-3-yl)pyridazin-3-yl)ethyl)-1H-pyrazol-4-yl)pyrazine-2-carboxamide] |
| 0.9 nM | 755 nM | Cc1ncc(-c2c(C(F)F)ccc(Cl)c2F)nc1C(=O)Nc1cnn(Cc2cnc(N3C[C@H]4C[C@H]4C3=O)c(C)n2)c1 [Example 46, 6-(3-Chloro-6-(difluoromethyl)-2-fluorophenyl)-3-methyl-N-(1-((6-methyl-5-((1R,5S)-2-oxo-3-azabicyclo[3.1.0]hexan-3-yl)pyrazin-2-yl)methyl)-1H-pyrazol-4-yl)pyrazine-2-carboxamide] |
| 0.6 nM | > 10000 nM | Cc1c(Cn2cc(NC(=O)c3cncc(-c4c(C(F)F)ccc(Cl)c4F)n3)cn2)ccc(N2C[C@H]3C[C@H]3C2=O)c1C [Example 48] |
| 0.4 nM | 328 nM | Cc1cc([C@H](C)n2cc(NC(=O)c3nc(-c4c(OC(F)F)ccc(Cl)c4F)cnc3C)cn2)nnc1N1C[C@H]2C[C@H]2C1=O [Example 39, 6-(3-Chloro-6-(difluoromethoxy)-2-fluorophenyl)-3-methyl-N-(1-((S)-1-(5-methyl-6-((1R,5S)-2-oxo-3-azabigyclo[3.1.0]hexan-3-yl)pyridazin-3-yl)ethyl)-1H-pyrazol-4-yl)pyrazine-2-carboxamide] |
| 0.2 nM | 53 nM | Cc1cc(Cn2cc(NC(=O)c3nc(-c4c(C(F)F)ccc(Cl)c4F)cnc3C)cn2)cnc1N1C[C@H]2C[C@H]2C1=O [Example 41, 6-(3-Chloro-6-(difluoromethyl)-2-fluorophenyl)-3-methyl-N-(1-((5-methyl-6-((1R,5S)-2-oxo-3-azabicyclo[3.1.0]hexan-3-yl)pyridin-3-yl)methyl)-1H-pyrazol-4-yl)pyrazine-2-carboxamide] |

Reference: patent US20230286958A1, “PLASMA KALLIKREIN INHIBITORS” (Merck Sharp & Dohme LLC, priority 2020, published 2023)
